Measurements published in patent US20070184080A1, “Post harvest treatment of crops” (AstraZeneca UK Ltd, priority 2002, published 2007).

Test system: Colletotrichum musae
Assay: Field test on inoculated banana hands: severity and incidence of molds and rots after 21 days storage
Format: in vivo
Conditions: 14 Degrees C., 90% RH
Source text: As set forth below, two sample formulations, Formula “C” and Formula “F”, containing paraffin wax, microcrystalline wax, and polybutylene (synthetic butyl rubber) were field tested in a tropical commercial banana operation. The test was designed to test the wax fungicide alternative, “the invention”, versus untreated placebo fruit and identical fruit treated with commercial fungicides. The inoculants were a highly concentrated aqueous Colletotrichum musae spore solution that is grossly more concentrated than actual field processing conditions. […] The test methodology included with four main test groups, each containing a statistically significant number of banana hands (clusters) to compare the relative infestation incidence rate of: • a.) Untreated inoculated fruit. • b.) Modified-wax treated inoculated fruit.—Two Formulas, C and F • c.) Fungicide treated inoculated fruit. • 1.) All of the fruit was inoculated with an aqueous suspension of 20,000 spores per milliliter of Colletotrichum by immersion in said suspension for a minimum of one minute. • 2.) The Formula C and F wax treated fruit was processed by dipping the wet crown of the inoculated banana hands into the molten wax, cooling for one minute, and re-dipping in the molten wax. • 3.) The Fungicide treated fruit was immersed into an aqueous solution of Thiabenzadole at the manufacturer's recommended dosage. • 4. All of the fruit was packaged and stored in a laboratory warehouse for twenty-one days at a temperature of 14 Degrees C. and ninety percent relative humidity. An empirical visual grading scale was employed to record and measure test results for a.) The presence or absence of rots and molds.; and b.) The severity of infestation. Latex staining was also observed and recorded. A visual infestation severity scale of one to five (1-5) was created where: 1=clean crown, and 5=severely rotten crown. After incubation, the banana producer's trained laboratory technicians graded the fruit and the aggregate results were compiled as presented below.

With `c1ccc2[nH]c(-c3cscn3)nc2c1` [Thiabenzadole] as the compound, how does the “Severity Crown Mold” value (Procedure I = Inoculated (20,000 spores/ml Colletotrichum), 1=clean crown, 5=severely rotten crown) read?
Its value is 3.7 Scale 1-5.

What about the “INCIDENCE Crown Mold” value (Procedure I = Inoculated) of the same compound?
Its value is 92.2%.

What about the “INCIDENCE Crown Rot” value (Procedure I = Inoculated) of the same compound?
The value was 100%.

And the “INCIDENCE Neck Rot” value (Procedure I = Inoculated)?
Its value is 27.2%.

What about the “INCIDENCE Peel Rot” value (Procedure I = Inoculated) of the same compound?
The value was 84%.

What about the “Severity Crown Rot” value (Procedure I = Inoculated, 1=clean crown, 5=severely rotten crown) of the same compound?
The value was 3.92 Scale 1-5.
